Experimental data taken from the NIST ThermoML archive (doi:10.1016/j.jct.2017.08.028).

Test: molar heat capacity at constant pressure
Conditions: 101.33 kPa, Crystal, Small (less than 1 g) adiabatic calorimetry

O[C@H]1[C@H](O)[C@@H](O)[C@H](O)[C@@H](O)[C@H]1O [cis-1,2,3,5-trans-4,6-cyclohexanehexol]
Conditions | molar heat capacity at constant pressure [J/K/mol]
5 K | 0.095
6 K | 0.1967
7 K | 0.3623
8 K | 0.6094
8.37 K | 0.774
8.4 K | 0.78
8.51 K | 0.803
8.64 K | 0.841
8.77 K | 0.885
8.91 K | 0.93
9 K | 0.9596
9.05 K | 0.977
9.2 K | 1.034
9.34 K | 1.096
9.5 K | 1.162
9.65 K | 1.224
9.81 K | 1.296
9.98 K | 1.381
10 K | 1.387
10.17 K | 1.467
10.39 K | 1.577
10.59 K | 1.677
10.81 K | 1.817
11.05 K | 1.945
11.28 K | 2.084
11.52 K | 2.218
11.76 K | 2.363
12 K | 2.535
12.25 K | 2.7
12.5 K | 2.861
12.75 K | 3.034
13.01 K | 3.189
13.27 K | 3.362
13.53 K | 3.524
13.81 K | 3.727
14.08 K | 3.897
14.35 K | 4.078
14.63 K | 4.226
14.91 K | 4.431
15 K | 4.502
15.19 K | 4.618
15.47 K | 4.81
15.75 K | 4.99
16.04 K | 5.208
16.32 K | 5.4
16.61 K | 5.588
16.9 K | 5.795
17.2 K | 5.99
17.49 K | 6.202
17.78 K | 6.394
18.08 K | 6.622
18.37 K | 6.852
18.67 K | 7.06
18.97 K | 7.278
19.27 K | 7.496
19.57 K | 7.721
19.87 K | 7.949
20 K | 8.03
20.46 K | 8.428
21.33 K | 9.104
22.21 K | 9.711
23.1 K | 10.41
24 K | 11.09
24.9 K | 11.77
25 K | 11.83
25.81 K | 12.44
26.73 K | 13.12
27.66 K | 13.84
28.59 K | 14.6
30 K | 15.78
30.38 K | 16.06
31.42 K | 16.86
32.38 K | 17.74
33.35 K | 18.4
34.31 K | 19.3
35 K | 19.73
35.28 K | 20.02
36.25 K | 20.7
37.23 K | 21.47
38.21 K | 22.22
39.19 K | 22.99
40 K | 23.57
40.18 K | 23.66
41.16 K | 24.37
42.15 K | 25.13
43.15 K | 25.81
44.14 K | 26.63
45 K | 27.22
45.14 K | 27.34
46.17 K | 28.07
47.17 K | 28.86
48.17 K | 29.58
49.18 K | 30.39
50 K | 30.99
50.18 K | 31.12
51.2 K | 31.92
53.79 K | 33.97
54.97 K | 34.9
55.99 K | 35.65
57.01 K | 36.49
58.03 K | 37.34
59.05 K | 38.14
60 K | 38.84
60.07 K | 38.87
61.1 K | 39.73
62.12 K | 40.52
63.15 K | 41.35
64.17 K | 42.18
65.2 K | 43.06
66.23 K | 43.91
67.26 K | 44.68
68.29 K | 45.54
69.32 K | 46.48
70 K | 46.97
70.38 K | 47.25
71.85 K | 48.53
73.87 K | 50.14
75.89 K | 51.78
77.91 K | 53.41
78.79 K | 54.18
79.15 K | 54.64
79.8 K | 55.07
80 K | 55.23
80.92 K | 56.01
81.14 K | 56.14
83.15 K | 57.79
85.15 K | 59.59
87.15 K | 61.09
89.15 K | 62.93
90 K | 63.55
91.14 K | 64.62
93.14 K | 66.21
95.13 K | 67.8
97.12 K | 69.47
99.11 K | 71.03
100 K | 71.84
101.58 K | 73.24
104.56 K | 75.65
107.54 K | 78.02
110 K | 80.06
110.53 K | 80.42
113.53 K | 82.88
116.54 K | 85.33
119.54 K | 87.73
120 K | 88.17
122.54 K | 90.16
125.55 K | 92.54
128.56 K | 94.96
130 K | 96.15
131.58 K | 97.38
134.6 K | 99.81
137.62 K | 102.1
140 K | 104
140.65 K | 104.5
143.68 K | 106.9
146.71 K | 109.2
149.74 K | 111.6
150 K | 111.7
152.78 K | 113.9
155.81 K | 116.2
158.85 K | 118.6
160 K | 119.4
161.89 K | 120.9
164.97 K | 123.2
168.01 K | 125.5
170 K | 126.9
171.06 K | 127.7
174.1 K | 130
177.15 K | 132.3
180 K | 134.3
180.2 K | 134.4
183.25 K | 136.7
186.3 K | 138.9
189.35 K | 141.2
190 K | 141.7
192.4 K | 143.5
195.46 K | 145.6
198.52 K | 147.8
200 K | 149.1
201.57 K | 150.1
204.63 K | 152.3
208.19 K | 155.1
210 K | 156.4
212.26 K | 158
216.41 K | 161.2
220 K | 163.7
220.48 K | 164
224.57 K | 167.1
228.65 K | 170.1
230 K | 171.1
232.72 K | 173.2
236.81 K | 176.2
240 K | 178.5
240.91 K | 179.3
245 K | 182.3
249.09 K | 185.2
250 K | 185.9
253.18 K | 188.2
257.27 K | 191.3
260 K | 193.4
261.36 K | 194.4
265.46 K | 197.6
269.55 K | 200.6
270 K | 200.9
273.15 K | 203.2
273.64 K | 203.7
277.73 K | 206.6
280 K | 208.4
281.9 K | 210
285.98 K | 212.8
290 K | 216
290.07 K | 215.9
294.15 K | 219
298.15 K | 222.1
298.22 K | 222
300 K | 223.5
303.01 K | 226
308.39 K | 230
310 K | 231.1
313.76 K | 234
319.12 K | 237.9
320 K | 238.7
324.46 K | 241.9
329.77 K | 246
330 K | 246.2
335.05 K | 250.1
340 K | 253.7
340.3 K | 253.9
